From patent publication EP1222242B1, “CLEANING AGENTS WHICH CONTAIN SURFACTANTS AND ENZYME INHIBITORS” (Henkel Kommanditgesellschaft auf Aktien, priority 1999, dated 2001)
“Also recorded” adds a separate entry of the source. Where a SMILES comes first, the peptide text is derived from it. The star is where a group is joined. Cbz = O=C(OCc1ccccc1)*

Assays:
[1] = biological target: T1, Trypsin (Bos taurus, UniProt P00760); assay: Trypsin enzyme activity test (BAPNA substrate, absorbance at 405 nm); type: biochemical, Rind; conditions: for Hemmwirkung (Minderung der Trypsin-Aktivität): 25 °C; for Hemmung von Trypsin: result in words over the tested concentration range
T1 construct: aus der vom Pankreas gebildeten Vorstufe Trypsinogen durch Abspaltung eines Hexapeptids entsteht; purchased Sigma; host or cells: bovine pancreas (Rinderpankreas)
T1 sequence (P00760 24-246): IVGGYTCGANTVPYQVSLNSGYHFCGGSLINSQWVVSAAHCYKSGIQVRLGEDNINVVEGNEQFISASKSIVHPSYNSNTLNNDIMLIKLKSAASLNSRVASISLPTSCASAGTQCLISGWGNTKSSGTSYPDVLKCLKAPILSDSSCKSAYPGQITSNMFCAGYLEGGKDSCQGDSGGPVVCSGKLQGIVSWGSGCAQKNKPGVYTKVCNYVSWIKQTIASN
Description: (§1) Da die hauteigenen, am Desmosomenabbau beteiligten Proteasen nicht in ausreichender Menge zur Verfügung standen, dienten die Serin-Proteasen Trypsin und Chymotrypsin (Sigma) aus Rinderpankreas als Modellenzym, um die Hemmwirkung des erfindungsgemäß verwendeten Inhibitors N-CBZ-Gly-Pro-Phe-Pro-Leu, zu testen. Als Vergleich wurde auch das als t-PA-Inhibitor (tissue-type plasminogen activator) bekannte t-AMCHA [trans-4(Aminomethyl)-cyclohexancarbonsäure] getestet.
Auch der Nachweis der Trypsin-Enzymaktivität erfolgt mit einer Modifikation analog zu den Angaben im Sigma Quality Control Test Procedure-Datenblatt für Trypsin. Anstelle von Aprotinin (Reagens F) wurden hier die erfindungsgemäßen Inhibitoren eingesetzt. Hierfür wurde eine Konzentrationsreihe der Inhibitoren in Reagens E angesetzt. Die Enzymaktivität wurde durch Umsetzung des Substrates Nα-Benzoyl-DL-Arginin-p-Nitroanilin (BAPNA) zu Nα-Benzoyl-DL-Arginin und p-Nitroanilin spektrophotometrisch bestimmt. Die Absorption des proteolytisch abgespaltenen p-Nitroanilins wird bei 405 nm gemessen.
(§2) Die Reaktionskinetiken wurden je 5 Minuten bei 25 °C detektiert, wobei der lineare Anstieg der Absorption (A) pro Zeiteinheit (t) ein Maß für die Aktivität des Enzyms (ΔA/Δt) ist. Die Aktivität des Enzyms in Abwesenheit eines Proteinase-Inhibitors, (ΔA1/Δt1 ), wurde auf 100% gesetzt. Unter analogen Bedingungen wurden die Aktivitäten in Gegenwart eines Inhibitors (ΔA2/Δt2) bestimmt. Die Hemmwirkung oder Minderung der Enzymaktivität entspricht dann: 100% - (ΔA2/Δt2 )/( ΔA1/Δt1)%.

[2] = biological target: T2, Chymotrypsin (Bos taurus, UniProt P00766); assay: Chymotrypsin enzyme activity test (BTEE substrate, absorbance at 256 nm); type: biochemical, Rind; conditions: for Hemmung von Chymotrypsin: result in words over the tested concentration range
T2 construct: Chymotrypsin entsteht im Pankreas aus inaktiven Vorstufen, sogenannten Zymogenen, durch Einwirkung von Trypsin; purchased Sigma; host or cells: bovine pancreas (Rinderpankreas)
Description: as §1
Der Nachweis der Chymotrypsin-Enzymaktivität erfolgt mit einer Modifikation analog zu den Angaben im Sigma Quality Control Test Procedure-Datenblatt für Chymotrypsin. Bei Ansätzen ohne Inhibitor wurden 1,42 mL Reagens A (80 mM Tris/HCl-Puffer, pH = 7,8; 25°C) zum Testansatz zugegeben. Bei Ansätzen mit Inhibitor wurden 1,32 mL Reagens A zum Testansatz zugegeben sowie 0,1 mL einer Lösung des entsprechenden Inhibitors in Reagens A (Konzentrationsreihe). Die Enzymaktivität wurde durch Umsetzung des Substrates N-Benzoyl-L-Tyrosinethylester (BTEE) zu N-Benzoyl-L-Tyrosin und Ethanol spektrophotometrisch bestimmt. Die Absorption des proteolytisch abgespaltenen N-Benzoyl-L-Tyrosins wird bei 256 nm gemessen.
as §2

[3] = tested on: Desquamation des Stratum corneum; assay: Desquamation test on human skin biopsies (detergent-induced corneocyte shedding, corneocyte count); type: cell-based; conditions: for Desquamation der Humanhaut (Korneozyten-Abschuppung): result in words over the tested concentration range
Description: Aus frischen Humanhautexplantaten (aus Mammareduktion) wurden 8mm^2-große Hautstücke ausgestanzt und mit einer Mischung aus Detergentien (Na-Dodecylsulfat, N,N-Dimethyldodecylaminoxid) in Abwesenheit und in Gegenwart der Inhibitoren behandelt. Unter dem Einfluß der Detergentien wird eine verstärkte Abschuppung (Desquamation) der Homschicht (Stratum corneum) künstlich induziert, also die Ausbildung trockener Haut im Versuch nachgeahmt. Die Anzahl abgeschuppter Hornzellen (Korneozyten) wurde unter dem Mikroskop in einer Schilling-Zählkammer bestimmt. Eine Verringerung der Korneozytenzahl weist auf eine hemmende Wirkung der getesteten potentiellen Inhibitoren hin.
Die Inhibitoren wurden in den entsprechenden Konzentrationen (vgl. Tabellen der Beispiele 7-12) im Inkubationspuffer angesetzt. Dieser bestand aus 0,1 M TRIS-HCl-Puffer (pH 8) mit 0,1 Gew.% Na-Azid und den Detergenzien Na-Dodecylsulfat (0,2 mM) und N,N-Dimethyldodecylaminoxid (8 mM) sowie EDTA (5 mM). Diese Inkubationspufferlösungen mit variierender Konzentration des Inhibitors werden nachfolgend als Testlösungen bezeichnet.
Es wurden zwei Arten von Blindkontrollen durchgeführt, eine Positiv- und eine Negativkontrolle. Für die sogenannte Positivkontrolle wurde nur der Inkubationspuffer verwendet, d. h. ohne Zusatz der Inhibitoren. Für die sogenannte Negativkontrolle wurde eine 5 mM Lösung von EDTA in TRIS-HCl-Puffer eingesetzt, d. h. ohne Zusatz der Detergentien.
Pro Reaktionsansatz wurden 0,5 mL der jeweiligen Testlösung oder des für die Blindkontrollen verwendeten Puffergemisches in verschließbaren Reaktionsgefäßen vorgelegt. Alle Ansätze wurden in vierfacher Ausfertigung durchgeführt, um die Reproduzierbarkeit der Ergebnisse zu gewährleisten.
Die Humanhaut wurde nach der Explantation in einer trockenen, sterilen Petrischale auf Kühlakkus transportiert. Nach Entfernung des Unterhautfett- und des Bindegewebes wurden mit Hilfe von sterilen Stanzen 8 mm^2-große Hautstücke präpariert. Diese wurden 15-20 min in steriler, physiologischer NaCl (0,9 %) gewaschen, zu den Reaktionsansätzen gegeben (1 Hautstück/Reaktionsansatz) und 44 Stunden bei 37° C inkubiert.
Nach Beendigung der Inkubationsphase wurden die Reaktionsgefäße 30 Sekunden auf einem Vortex-Mixer geschüttelt, um noch lose anhaftende Komeozyten von den Hautstücken abzulösen. Die Hautstücke wurden entnommen und die verbleibende Dispersion wurde 8 Minuten bei 11.000U/min zentrifugiert, um die Korneozyten zu isolieren. Der detergenshaltige Überstand (0,4 mL) wurde verworfen und der Rückstand mit 0,4 ml Aqua dest. gewaschen. Nach nochmaligem Zentrifugieren wurde der Überstand (0.4 mL) wiederum verworfen, das verbleibende Zellpellet in 0,4 mL Aqua dest. aufgenommen und die abgelösten Korneozyten in einer Schillingzählkammer unter einem Lichtmikroskop ausgezählt.
Nachfolgende Tabellen geben eine Zusammenstellung über die Anzahl abgelöster Korneozyten: • nach Behandlung der Haut-Biopsien mit einem Detergentiengemisch in Abwesenheit der Inhibitoren (Positivkontrolle) • nach Behandlung der Haut-Biopsien mit einer Pufferlösung in Abwesenheit der Detergentien und Inhibitoren (Negativkontrolle) • nach Behandlung der Haut-Biopsien mit einem Detergentiengemisch, welches die Inhibitoren in variierender Konzentration enthält.

[4] = inhibitor concentration 0,01 % (w/v)
[5] = inhibitor concentration 0,001 % (w/v)
[6] = inhibitor concentration 0,01 % (w/v), 25 °C
[7] = inhibitor concentration 0,001 % (w/v), 25 °C
[8] = inhibitor 0,1 % (w/v), corneocyte count, positive control = 100 %, 44 h, 37° C
[9] = inhibitor 0,5 % (w/v), corneocyte count, positive control = 100 %, 44 h, 37° C

Borsäure
Hemmwirkung (Minderung der Trypsin-Aktivität) [1, 4]: Keine Hemmwirkung meßbar | Hemmwirkung (Minderung der Trypsin-Aktivität) ([1]; inhibitor concentration 0,1 % (w/v)): 6% | Hemmwirkung (Minderung der Trypsin-Aktivität) ([1]; inhibitor concentration 0,5 % (w/v)): 23% | Hemmwirkung (Minderung der Trypsin-Aktivität) [1, 5]: Keine Hemmwirkung meßbar | Hemmung von Trypsin [1]: schwache Hemmung; also recorded: nur schwach | Hemmwirkung (Minderung der Chymotrypsin-Aktivität) [2, 6]: keine Hemmwirkung meßbar | Hemmwirkung (Minderung der Chymotrypsin-Aktivität) ([2]; inhibitor concentration 0,1 % (w/v), 25 °C): 23% | Hemmwirkung (Minderung der Chymotrypsin-Aktivität) [2, 7]: keine Hemmwirkung meßbar | Hemmung von Chymotrypsin [2]: schwache Hemmung; also recorded: nur schwach | Desquamation an Humanhaut ex vivo ([3]; inhibitor 0,01 % (w/v), corneocyte count, positive control = 100 %, 44 h, 37° C): 86% | Desquamation an Humanhaut ex vivo [3, 8]: 50% | Desquamation an Humanhaut ex vivo ([3]; inhibitor 0,2 % (w/v), corneocyte count, positive control = 100 %, 44 h, 37° C): 47% | Reduktion der Abschuppung der Korneozyten ([3]; inhibitor 0,2 %, result in words): halbieren | Desquamation der Humanhaut (Korneozyten-Abschuppung) [3]: signifikant reduziert

OB(O)c1ccccc1 [Phenylboronsäure]
Hemmwirkung (Minderung der Trypsin-Aktivität) [1, 4]: Keine Hemmung meßbar | Hemmwirkung (Minderung der Trypsin-Aktivität) ([1]; inhibitor concentration 0,05 % (w/v)): 5% | Hemmwirkung (Minderung der Trypsin-Aktivität) [1, 5]: Keine Hemmung meßbar | Hemmwirkung (Minderung der Trypsin-Aktivität) ([1]; inhibitor concentration 0,005 % (w/v)): Keine Hemmung meßbar | Hemmung von Trypsin [1]: nur mäßig beeinträchtigt | Hemmwirkung (Minderung der Chymotrypsin-Aktivität) [2, 6]: 9% | Hemmwirkung (Minderung der Chymotrypsin-Aktivität) ([2]; inhibitor concentration 0,05 % (w/v), 25 °C): 45% | Hemmwirkung (Minderung der Chymotrypsin-Aktivität) [2, 7]: keine Hemmung meßbar | Hemmung von Chymotrypsin [2]: deutliche, konzentrationsabhängige Hemmung | activity at 0.1 % ([3]; Homo sapiens, pH 8, inhibitor 0,1 % (w/v), corneocyte count, positive control = 100 %, 44 h, 37° C, read-out: Desquamation an Humanhaut ex vivo): 60% | activity at 0.05 % ([3]; Homo sapiens, pH 8, inhibitor 0,05 % (w/v), corneocyte count, positive control = 100 %, 44 h, 37° C, read-out: Desquamation an Humanhaut ex vivo): 89% | Reduktion der Abschuppung der Korneozyten ([3]; inhibitor 0,1 %, result in words): siginifikant reduzieren | Desquamation der Humanhaut (Korneozyten-Abschuppung) [3]: signifikant reduziert

CC(C)CC(NC(=O)C1CCCN1C(=O)C(Cc1ccccc1)NC(=O)C1CCCN1C(=O)CNC(=O)OCc1ccccc1)C(=O)O (stereo not drawn) [N-CBZ-GPFPL, N-CBZ-Gly-Pro-Phe-Pro-Leu] (Cbz-GPFPL-OH; configuration not given here)
Hemmwirkung (Minderung der Trypsin-Aktivität) ([1]; inhibitor concentration 0,03 % (w/v)): keine Hemmwirkung messbar | Hemmwirkung (Minderung der Trypsin-Aktivität) ([1]; inhibitor concentration 0,06 % (w/v)): -"- | Hemmwirkung (Minderung der Trypsin-Aktivität) ([1]; inhibitor concentration 0,33 % (w/v)): -"- | Hemmung von Trypsin [1]: nicht beeinträchtigt | inhibition at 0.06 % ([2]; 5 min, pH 7.8, inhibitor concentration 0,06 % (w/v), 25 °C, read-out: Hemmwirkung (Minderung der Chymotrypsin-Aktivität)): 7% | inhibition at 0.33 % ([2]; 5 min, pH 7.8, inhibitor concentration 0,33 % (w/v), 25 °C, read-out: Hemmwirkung (Minderung der Chymotrypsin-Aktivität)): 27% | Hemmwirkung (Minderung der Chymotrypsin-Aktivität) ([2]; inhibitor concentration 0,03 % (w/v), 25 °C): 2% | Hemmung von Chymotrypsin [2]: spezifische Hemmung | Desquamation an Humanhaut ex vivo [3, 8]: 93% | Desquamation an Humanhaut ex vivo [3, 9]: 51% | Reduktion der Abschuppung (Desquamation der Haut) ([3]; inhibitor 0,5 %, result in words): um die Hälfte reduziert | Desquamation der Humanhaut (Korneozyten-Abschuppung) [3]: signifikant reduziert

NCCc1ccc(S(=O)(=O)F)cc1 [Pefabloc® SC, 4-(2-Aminoethyl)phenylsulfonylfluorid]
Hemmung von Trypsin [1]: starke, konzentrationsabhängige Hemmung | Hemmung von Trypsin ([1]; listed as Pefabloc®): effektiver Inhibitor | Hemmung von Chymotrypsin [2]: starke, konzentrationsabhängige Hemmung | Hemmung von Chymotrypsin ([2]; listed as Pefabloc®): effektiver Inhibitor | Desquamation an Humanhaut ex vivo [3, 8]: 34% | Desquamation an Humanhaut ex vivo [3, 9]: 11% | Abschuppung reduziert um ([3]; inhibitor 0,5 %, reduction versus positive control): ~90%
